Data set [1] deals with T1, Interleukin-23 receptor (Homo sapiens, UniProt Q5VWK5).
T1 sequence (Q5VWK5 whole entry): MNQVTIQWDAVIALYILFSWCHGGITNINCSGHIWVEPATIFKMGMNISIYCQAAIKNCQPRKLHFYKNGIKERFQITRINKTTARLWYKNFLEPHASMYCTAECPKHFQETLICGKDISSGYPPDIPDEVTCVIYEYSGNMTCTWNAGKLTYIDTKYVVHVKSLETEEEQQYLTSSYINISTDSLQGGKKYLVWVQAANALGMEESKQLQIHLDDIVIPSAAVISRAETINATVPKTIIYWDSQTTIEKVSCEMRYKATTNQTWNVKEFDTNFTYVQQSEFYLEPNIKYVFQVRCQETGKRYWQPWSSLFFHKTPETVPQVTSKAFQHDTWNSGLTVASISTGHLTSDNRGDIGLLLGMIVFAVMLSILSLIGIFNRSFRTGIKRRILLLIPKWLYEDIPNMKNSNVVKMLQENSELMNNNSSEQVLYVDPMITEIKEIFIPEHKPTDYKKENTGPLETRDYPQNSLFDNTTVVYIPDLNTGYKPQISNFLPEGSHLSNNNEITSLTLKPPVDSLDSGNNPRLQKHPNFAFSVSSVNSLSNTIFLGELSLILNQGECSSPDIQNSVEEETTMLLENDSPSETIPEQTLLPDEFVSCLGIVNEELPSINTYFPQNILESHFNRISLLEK
Nature of the data set: Inhibition of interleukin-23 binding to human interleukin-23 receptor incubated for 2 hrs by competitive binding ELISA.

Data set [2] concerns the target T1, Interleukin-23 receptor. In words: Inhibition of interleukin-23 receptor in human DB cells assessed as reduction in IL-23-stimulated STAT3 phosphorylation incubated for 30 mins by HTRF assay. It counts as cell-based. A general note: Time-resolved FRET reads energy transfer from a long-lived donor to a nearby acceptor.
Data set [3] can be described thus: Half life in simulated intestinal fluid at 20 uM by LC-MS/MS analysis. In kind it is ADME.
Data set [4] can be described thus: Half life in simulated gastric fluid at 20 uM by LC-MS/MS analysis. It counts as ADME.

*1 amine or outer side, *2 acyl side, *3 side chain or, on linkers, in order; H or OH if unused. Where a SMILES comes first, the peptide text is derived from it. Bridges are numbered along the chain shown (N, C = ends). [ ]: non-standard residue; d: D form. Abu(4-yl) = O=C([C@H](CC[*:3])N[*:1])[*:2]; 2Nal = N[C@@H](Cc1ccc2ccccc2c1)C(=O)O; AEF = NCCOc1ccc(C[C@H](N)C(=O)O)cc1; αMeK = C[C@](N)(CCCCN)C(=O)O

By IC50 is commonly meant the concentration that inhibits the measured activity by half. In general, half-life refers to the time in which the quantity being followed falls by half. Low readings indicate fast loss, high ones slow loss. For the compound `CC[C@](C)(NC(=O)[C@H](Cc1ccc2ccccc2c1)NC(=O)[C@H](Cc1ccc(OCCN)cc1)NC(=O)[C@@H]1CSCC[C@H](NC(C)=O)C(=O)N[C@@H](CCC(N)=O)C(=O)N[C@@H]([C@@H](C)O)C(=O)N[C@@H](Cc2c[nH]c3ccccc23)C(=O)N[C@@H](CCC(N)=O)C(=O)N1)C(=O)N[C@@H](CCCCNC(C)=O)C(=O)N[C@@H](CC(N)=O)C(=O)NCC(N)=O`, the IC50 on Interleukin-23 receptor [1] and at Interleukin-23 receptor [2] was below 10 nM in each case. Also, the figures for the half-life at 20 µM in data set [3] and in data set [4] were 1 to 2 h and below 1 h, respectively.
Consider `CC(=O)N[C@H]1CCSC[C@@H](C(=O)N[C@@H](Cc2ccc(OCCN)cc2)C(=O)N[C@@H](Cc2ccc3ccccc3c2)C(=O)N[C@@](C)(CCCCN)C(=O)N[C@@H](CC(N)=O)C(=O)N[C@@H](CC(N)=O)C(=O)NCC(N)=O)NC(=O)[C@H](CCC(N)=O)NC(=O)[C@H](Cc2c[nH]c3ccccc23)NC(=O)[C@H]([C@@H](C)O)NC(=O)[C@H](CCC(N)=O)NC1=O` (Ac-[Abu(4-yl)]QTWQC[AEF][2Nal][αMeK]NNG-NH2; thioether 1-6), for which the IC50 on Interleukin-23 receptor [1] and on Interleukin-23 receptor [2] was below 10 nM each time. The half-life at 20 µM in data set [3] and in data set [4] was 3 to 6 h in each case.
As to `CC(=O)NCCOc1ccc(C[C@H](NC(=O)[C@@H](NC(=O)[C@H](CCC(N)=O)NC(=O)[C@H](Cc2c[nH]c3ccccc23)NC(=O)[C@@H](NC(=O)[C@H](CCC(N)=O)NC(=O)[C@@H](NC(C)=O)C(C)(C)S)[C@@H](C)O)C(C)(C)S)C(=O)N[C@@H](Cc2ccc3ccccc3c2)C(=O)NC(C)(C)C(=O)N[C@@H](CCC(=O)O)C(=O)N[C@@H](CC(N)=O)C(=O)N[C@@H](CC(N)=O)C(N)=O)cc1`, the half-maximal inhibitory concentration (IC50) at Interleukin-23 receptor [1] is 10 to 25 nM; on Interleukin-23 receptor [2] it was below 10 nM. Besides, the half-life at 20 µM in data set [3] and in data set [4] was above 6 h each time.
Consider `CC(=O)N[C@H](C(=O)N[C@@H](CCC(N)=O)C(=O)N[C@H](C(=O)N[C@@H](Cc1c[nH]c2ccccc12)C(=O)N[C@@H](CCC(N)=O)C(=O)N[C@H](C(=O)N[C@@H](Cc1ccc(OCCN)cc1)C(=O)N[C@@H](Cc1ccc2ccccc2c1)C(=O)N[C@@H](CCC(C)C)C(=O)N[C@@H](CCC(=O)O)C(=O)N[C@@H](CC(N)=O)C(=O)N[C@@H](C)C(N)=O)C(C)(C)S)[C@@H](C)O)C(C)(C)S`, for which, on Interleukin-23 receptor [2], the IC50 was 10 to 25 nM. Also, the half-life at 20 µM in data set [3] and in data set [4] was below 1 h throughout.
Turning to `COc1ccc(C[C@H](NC(=O)[C@@H](NC(=O)[C@H](CCC(N)=O)NC(=O)[C@H](Cc2c[nH]c3ccccc23)NC(=O)[C@@H](NC(=O)[C@H](CC(N)=O)NC(=O)[C@@H](NC(C)=O)C(C)(C)S)[C@@H](C)O)C(C)(C)S)C(=O)N[C@@H](Cc2ccc3ccccc3c2)C(=O)NC(C)(C)C(=O)N[C@@H](CCC(=O)O)C(=O)N[C@@H](CC(N)=O)C(=O)N[C@@H](CC(N)=O)C(N)=O)cc1`, the IC50 on Interleukin-23 receptor [2] is below 10 nM. The half-life at 20 µM in data set [3] was 2 to 3 h; in data set [4] it was above 6 h.
Take `CC(=O)NCCCC[C@](C)(NC(=O)[C@H](Cc1ccc2ccccc2c1)NC(=O)[C@H](Cc1ccc(OCCNC(C)=O)cc1)NC(=O)[C@@H](NC(=O)[C@H](CCC(N)=O)NC(=O)[C@H](Cc1c[nH]c2ccccc12)NC(=O)[C@@H](NC(=O)[C@H](CCC(N)=O)NC(=O)[C@@H](NC(C)=O)C(C)(C)S)[C@@H](C)O)C(C)(C)S)C(=O)N[C@@H](CCC(=O)O)C(=O)N[C@@H](CC(N)=O)C(=O)NCC(N)=O`: the IC50 on Interleukin-23 receptor [1] was 10 to 25 nM; at Interleukin-23 receptor [2], below 10 nM. Further, the half-life at 20 µM in data set [3] was 3 to 6 h; in data set [4], above 6 h.
Consider `CC(=O)NCCCC[C@H](NC(=O)C(C)(C)NC(=O)[C@H](Cc1ccc2ccccc2c1)NC(=O)[C@H](Cc1ccc(OCCN)cc1)NC(=O)[C@@H]1CSCC[C@H](NC(C)=O)C(=O)N[C@@H](CCC(N)=O)C(=O)N[C@@H]([C@@H](C)O)C(=O)N[C@@H](Cc2c[nH]c3ccccc23)C(=O)N[C@@H](CCC(N)=O)C(=O)N1)C(=O)N[C@@H](CC(N)=O)C(=O)NCC(N)=O`, for which the IC50 at Interleukin-23 receptor [1] and at Interleukin-23 receptor [2] was below 10 nM throughout. Moreover, the half-life at 20 µM in data set [3] and in data set [4] was 1 to 2 h each time.
For the compound `CC(=O)NCCCC[C@H](NC(=O)[C@H](CCC(C)C)NC(=O)[C@H](Cc1ccc2ccccc2c1)NC(=O)[C@H](Cc1ccc(OCCN)cc1)NC(=O)[C@@H](NC(=O)[C@H](CCC(N)=O)NC(=O)[C@H](Cc1c[nH]c2ccccc12)NC(=O)[C@@H](NC(=O)[C@H](CC(N)=O)NC(=O)[C@@H](NC(C)=O)C(C)(C)S)[C@@H](C)O)C(C)(C)S)C(=O)N[C@@H](CC(N)=O)C(=O)NCCC(N)=O`, the IC50 on Interleukin-23 receptor [2] was below 10 nM. Further, the half-life at 20 µM in data set [3] and in data set [4] was below 1 h throughout.
Take `CC(=O)NCCCC[C@H](NC(=O)C(C)(C)NC(=O)[C@H](Cc1ccc2ccccc2c1)NC(=O)[C@H](Cc1ccc(OCCN)cc1)NC(=O)[C@@H](NC(=O)[C@H](CCC(N)=O)NC(=O)[C@H](Cc1c[nH]c2ccccc12)NC(=O)[C@@H](NC(=O)[C@H](CCC(N)=O)NC(=O)[C@@H](NC(C)=O)C(C)(C)S)[C@@H](C)O)C(C)(C)S)C(=O)N[C@@H](CC(N)=O)C(=O)NCCC(N)=O`: on Interleukin-23 receptor [2], the IC50 is below 10 nM. Also, the half-life at 20 µM in data set [3] and in data set [4] was above 6 h in each case.
As for `CC(=O)NCCCC[C@H](NC(=O)C(C)(C)NC(=O)[C@H](Cc1ccc2ccccc2c1)NC(=O)[C@H](Cc1ccc(OCCN)cc1)NC(=O)[C@@H](NC(=O)[C@H](CCC(N)=O)NC(=O)[C@H](Cc1c[nH]c2ccccc12)NC(=O)[C@@H](NC(=O)[C@H](CC(N)=O)NC(=O)[C@@H](NC(C)=O)C(C)(C)S)[C@@H](C)O)C(C)(C)S)C(=O)N[C@@H](CC(N)=O)C(=O)N[C@@H](CCC(N)=O)C(N)=O`, at Interleukin-23 receptor [2], the IC50 was below 10 nM. The half-life at 20 µM in data set [3] and in data set [4] was above 6 h in each case.
For the compound `COc1ccc(C[C@H](NC(=O)[C@@H](NC(=O)[C@H](CCC(N)=O)NC(=O)[C@H](Cc2c[nH]c3ccccc23)NC(=O)[C@@H](NC(=O)[C@H](CC(N)=O)NC(=O)[C@@H](NC(C)=O)C(C)(C)S)[C@@H](C)O)C(C)(C)S)C(=O)N[C@@H](Cc2ccc3ccccc3c2)C(=O)N[C@@H](CCC(C)C)C(=O)N[C@@H](CCCCNC(C)=O)C(=O)N[C@@H](CC(N)=O)C(=O)NCCC(N)=O)cc1`, the IC50 at Interleukin-23 receptor [2] is below 10 nM. The half-life at 20 µM in data set [3] and in data set [4] was below 1 h each time.
Consider `COc1ccc(C[C@H](NC(=O)[C@@H](NC(=O)[C@H](CCC(N)=O)NC(=O)[C@H](Cc2c[nH]c3ccccc23)NC(=O)[C@@H](NC(=O)[C@H](CCC(N)=O)NC(=O)[C@@H](NC(C)=O)C(C)(C)S)[C@@H](C)O)C(C)(C)S)C(=O)N[C@@H](Cc2ccc3ccccc3c2)C(=O)NC(C)(C)C(=O)N[C@@H](CCCCNC(C)=O)C(=O)N[C@@H](CC(N)=O)C(=O)N[C@@H](CC(N)=O)C(N)=O)cc1`, for which, on Interleukin-23 receptor [2], the IC50 is below 10 nM. In addition, the half-life at 20 µM in data set [3] is 3 to 6 h; in data set [4], above 6 h.
For `COc1ccc(C[C@H](NC(=O)[C@@H](NC(=O)[C@H](CCC(N)=O)NC(=O)[C@H](Cc2c[nH]c3ccccc23)NC(=O)[C@@H](NC(=O)[C@H](CCC(N)=O)NC(=O)[C@@H](NC(C)=O)C(C)(C)S)[C@@H](C)O)C(C)(C)S)C(=O)N[C@@H](Cc2ccc3ccccc3c2)C(=O)NC(C)(C)C(=O)N[C@@H](CCC(=O)O)C(=O)N[C@@H](CC(N)=O)C(=O)N[C@@H](CC(N)=O)C(N)=O)cc1`, the IC50 on Interleukin-23 receptor [2] was below 10 nM. In addition, the half-life at 20 µM in data set [3] is 2 to 3 h; in data set [4], above 6 h.
In the same order, the values of `COc1ccc(C[C@H](NC(=O)[C@@H](NC(=O)[C@H](CCC(N)=O)NC(=O)[C@H](Cc2c[nH]c3ccccc23)NC(=O)[C@@H](NC(=O)[C@H](CC(N)=O)NC(=O)[C@@H](NC(C)=O)C(C)(C)S)[C@@H](C)O)C(C)(C)S)C(=O)N[C@@H](Cc2ccc3ccccc3c2)C(=O)NC(C)(C)C(=O)N[C@@H](CCCCNC(C)=O)C(=O)N[C@@H](CC(N)=O)C(=O)N[C@@H](CC(N)=O)C(N)=O)cc1` are below 10 nM, above 6 h and above 6 h.
Regarding `CC(=O)NCCCC[C@H](NC(=O)C(C)(C)NC(=O)[C@H](Cc1ccc2ccccc2c1)NC(=O)[C@H](Cc1ccc(OCCN)cc1)NC(=O)[C@@H](NC(=O)[C@H](CCC(N)=O)NC(=O)[C@H](Cc1c[nH]c2ccccc12)NC(=O)[C@@H](NC(=O)[C@@H](NC(=O)[C@@H](NC(C)=O)C(C)(C)S)[C@@H](C)O)[C@@H](C)O)C(C)(C)S)C(=O)N[C@@H](CC(N)=O)C(=O)N[C@@H](CC(N)=O)C(N)=O`, the IC50 on Interleukin-23 receptor [2] is below 10 nM. The half-life at 20 µM in data set [3] and in data set [4] was above 6 h each time.
`COc1ccc(C[C@H](NC(=O)[C@@H](NC(=O)[C@H](CCC(N)=O)NC(=O)[C@H](Cc2c[nH]c3ccccc23)NC(=O)[C@@H](NC(=O)[C@H](CC(N)=O)NC(=O)[C@@H](NC(C)=O)C(C)(C)S)[C@@H](C)O)C(C)(C)S)C(=O)N[C@@H](Cc2ccc3ccccc3c2)C(=O)NC(C)(C)C(=O)N[C@@H](CCCCNC(C)=O)C(=O)N[C@@H](CC(N)=O)C(=O)N[C@@H](CCC(N)=O)C(N)=O)cc1`: the IC50 on Interleukin-23 receptor [2] was below 10 nM. For the same compound, the half-life at 20 µM in data set [3] and in data set [4] was above 6 h each time.
